Experimental data as given in patent publication US20240025862A1, “SUBSTITUTED N-PHENYLURACILS AND SALTS THEREOF, AND USE THEREOF AS HERBICIDAL ACTIVE SUBSTANCES” (Bayer Aktiengesellschaft, priority 2020, published 2024).

What was measured:
Assay type in all cases: in vivo
[1] = system: Abutilon theophrasti (ABUTH); experiment: Post-emergence herbicidal action, greenhouse pot test; settings: rated visually after about 3 weeks vs untreated controls, 100% = plants have died
Method in brief: (§1)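 Activity was scored by eye about 3 weeks after treatment against untreated plants, where 100% means dead plants and 0% means no difference. Plants at the one-leaf stage received a foliar spray of WP or EC formulations in water plus 0.5% additive (600 l/ha, up to 20 g/ha). Plants were grown in sandy loam pots in a greenhouse for 2–3 weeks before spraying.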

[2] = system: Amaranthus retroflexus (AMARE); experiment: as above; settings: rated visually after about 3 weeks vs untreated controls, 100% = plants have died
Method in brief: as §1

[3] = system: Pharbitis purpurea (PHBPU); experiment: as above
Method in brief: as §1

[4] = system: Polygonum convolvulus (POLCO); experiment: as above
Method in brief: as §1

Stellaria media (STEME) = experiment: as above
Method in brief: as §1

Veronica persica (VERPE) = experiment: as above
Method in brief: as §1

Viola tricolor (VIOTR) = experiment: as above
Method in brief: as §1

[5] = system: Alopecurus myosuroides (ALOMY); experiment: Post-emergence herbicidal action, greenhouse pot test (also comparative test C); settings: 20 g/ha, rated visually after about 3 weeks vs untreated controls, 100% = plants have died
Method in brief: (§2)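 Greenhouse pot plants in sandy loam were sprayed post-emergence at the one-leaf stage (2–3 weeks after sowing) with WP or EC formulations plus 0.5% additive at 600 l/ha water. Activity was rated visually after about 3 weeks versus untreated controls (100% = dead, 0% = like control); rates were 20 g/ha or less, and 5 g/ha or less in the comparative test.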

[6] = system: Echinochloa crus-galli (ECHCG); experiment: as above
Method in brief: as §2

[7] = system: Matricaria inodora (MATIN); experiment: as above
Method in brief: as §2

Setaria viridis (SETVI) = experiment: as above; settings: for Post-emergence action against SETVI: 20 g/ha
Method in brief: as §2

Brassica napus (BRSNW) = experiment: Post-emergence crop plant compatibility, greenhouse pot test; settings: 1.25 g/ha, vs untreated controls
Method in brief: (§3)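 Values are visual % damage versus untreated controls (100% = plants died) about 3 weeks after treatment. Plants in sandy loam were sprayed at the one-leaf stage, 2–3 weeks after sowing, with aqueous WP/EC preparations plus 0.5% additive at 600 l/ha; a/b/c mark different dose levels.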

Glycine max (GLXMA) = experiment: as above
Method in brief: as §3

[8] = system: Triticum aestivum (TRZAS); experiment: as above; settings: vs untreated controls
Method in brief: as §3

Oryza sativa (ORYSA) = experiment: Post-emergence crop plant compatibility, greenhouse pot test (also comparative test C); settings: for Post-emergence action against ORYSA (crop plant compatibility): vs untreated controls
Method in brief: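 Visual damage versus untreated plants (0% = like control, 100% = plants died) was scored about 3 weeks after a post-emergence spray in greenhouse pots. Treatment: one-leaf stage, WP or EC in water at 600 l/ha with 0.5% additive; a/b/c mark different dosages on the same crop.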

CCOCCOC(=O)C(C)Oc1ccccc1Sc1cc(-n2c(=O)cc(C(F)(F)F)n(C)c2=O)c(F)cc1Cl (racemic) [I.2-2]
Post-emergence action at 1.25 g/ha against ABUTH in % ([1]; 1.25 g/ha): 80%
Post-emergence action at 5 g/ha against ABUTH in % [1]: 100%
Post-emergence action at 20 g/ha against ABUTH in % [1]: 100%
Post-emergence action at 1.25 g/ha against AMARE in % [2]: 100%
Post-emergence action at 5 g/ha against AMARE in % [2]: 100%
Post-emergence action at 20 g/ha against AMARE in % [2]: 100%
Post-emergence action against PHBPU in % ([3]; dosage 1.25 g/ha): 100%
Post-emergence action against PHBPU in % ([3]; dosage 5 g/ha): 100%
Post-emergence action against PHBPU in % ([3]; dosage 20 g/ha): 100%
Post-emergence action against POLCO in % ([4]; dosage 5 g/ha): 100%
Post-emergence action against POLCO in % ([4]; dosage 20 g/ha): 100%
Post-emergence action against STEME (Stellaria media (STEME); 5 g/ha): 100%
Post-emergence action against STEME (Stellaria media (STEME); 20 g/ha): 100%
Post-emergence action against VERPE (Veronica persica (VERPE); 1.25 g/ha): 100%
Post-emergence action against VERPE (Veronica persica (VERPE); 5 g/ha): 100%
Post-emergence action against VERPE (Veronica persica (VERPE); 20 g/ha): 100%
Post-emergence action against VIOTR (Viola tricolor (VIOTR); 1.25 g/ha): 100%
Post-emergence action against VIOTR (Viola tricolor (VIOTR); 5 g/ha): 100%
Post-emergence action against VIOTR (Viola tricolor (VIOTR); 20 g/ha): 100%
Post-emergence action at 20 g/ha against ALOMY in % [5]: 80%
Post-emergence action against ECHCG in % ([6]; dosage 20 g/ha): 90%
Post-emergence action against MATIN in % ([7]; dosage 5 g/ha): 80%
Post-emergence action against MATIN in % ([7]; dosage 20 g/ha): 100%
Post-emergence action against SETVI (Setaria viridis (SETVI)): 100%
Post-emergence action against SETVI in % (Setaria viridis (SETVI); dosage 1.25 g/ha): 100%
Post-emergence action against SETVI in % (Setaria viridis (SETVI); dosage 5 g/ha): 100%
Post-emergence action against BRSNW (crop plant compatibility) (Brassica napus (BRSNW)): 10%
Post-emergence action against GLXMA in % (Glycine max (GLXMA); 1.25 g/ha): 0%
Post-emergence action against GLXMA in % (Glycine max (GLXMA); 5 g/ha): 0%
Post-emergence action against GLXMA in % (Glycine max (GLXMA); 20 g/ha): 10%
Post-emergence action against TRZAS (crop plant compatibility) ([8]; 1.25 g/ha): 20%
Post-emergence action against TRZAS (crop plant compatibility) ([8]; 5 g/ha): 20%
Post-emergence action against ORYSA (crop plant compatibility) (Oryza sativa (ORYSA); 1.25 g/ha): 10%
Post-emergence action against ORYSA (crop plant compatibility) (Oryza sativa (ORYSA); 5 g/ha): 10%
Post-emergence action against ORYSA in % (Oryza sativa (ORYSA); 20 g/ha, crop plant compatibility): 20%

CC(Oc1ccccc1Sc1cc(-n2c(=O)cc(C(F)(F)F)n(C)c2=O)c(F)cc1Cl)C(=O)OCC1CCOC1 (mixture of isomers) [I.2-72]
Post-emergence action at 5 g/ha against ABUTH in % [1]: 100%
Post-emergence action at 20 g/ha against ABUTH in % [1]: 100%
Post-emergence action at 1.25 g/ha against AMARE in % [2]: 90%
Post-emergence action at 5 g/ha against AMARE in % [2]: 100%
Post-emergence action at 20 g/ha against AMARE in % [2]: 100%
Post-emergence action against PHBPU in % ([3]; dosage 1.25 g/ha): 100%
Post-emergence action against PHBPU in % ([3]; dosage 5 g/ha): 100%
Post-emergence action against PHBPU in % ([3]; dosage 20 g/ha): 100%
Post-emergence action against POLCO in % ([4]; dosage 5 g/ha): 80%
Post-emergence action against POLCO in % ([4]; dosage 20 g/ha): 100%
Post-emergence action against STEME (Stellaria media (STEME); 5 g/ha): 100%
Post-emergence action against STEME (Stellaria media (STEME); 20 g/ha): 100%
Post-emergence action against VERPE (Veronica persica (VERPE); 1.25 g/ha): 100%
Post-emergence action against VERPE (Veronica persica (VERPE); 5 g/ha): 100%
Post-emergence action against VERPE (Veronica persica (VERPE); 20 g/ha): 100%
Post-emergence action against VIOTR (Viola tricolor (VIOTR); 1.25 g/ha): 100%
Post-emergence action against VIOTR (Viola tricolor (VIOTR); 5 g/ha): 100%
Post-emergence action against VIOTR (Viola tricolor (VIOTR); 20 g/ha): 100%
Post-emergence action at 20 g/ha against ALOMY in % [5]: 90%
Post-emergence action against ECHCG in % ([6]; dosage 5 g/ha): 80%
Post-emergence action against ECHCG in % ([6]; dosage 20 g/ha): 80%
Post-emergence action against MATIN in % ([7]; dosage 20 g/ha): 100%
Post-emergence action against SETVI (Setaria viridis (SETVI)): 100%
Post-emergence action against SETVI in % (Setaria viridis (SETVI); dosage 1.25 g/ha): 90%
Post-emergence action against SETVI in % (Setaria viridis (SETVI); dosage 5 g/ha): 100%
Post-emergence action against BRSNW (crop plant compatibility) (Brassica napus (BRSNW)): 10%
Post-emergence action against GLXMA in % (Glycine max (GLXMA); 1.25 g/ha): 0%
Post-emergence action against GLXMA in % (Glycine max (GLXMA); 5 g/ha): 10%
Post-emergence action against TRZAS (crop plant compatibility) ([8]; 1.25 g/ha): 20%
Post-emergence action against TRZAS (crop plant compatibility) ([8]; 5 g/ha): 20%
Post-emergence action against ORYSA (crop plant compatibility) (Oryza sativa (ORYSA); 1.25 g/ha): 0%
Post-emergence action against ORYSA (crop plant compatibility) (Oryza sativa (ORYSA); 5 g/ha): 20%

CC(Oc1ccccc1Sc1cc(-n2c(=O)cc(C(F)(F)F)n(C)c2=O)c(F)cc1Cl)C(=O)OCC1CCCO1 (mixture of isomers) [I.2-71]
Post-emergence action at 5 g/ha against ABUTH in % [1]: 100%
Post-emergence action at 20 g/ha against ABUTH in % [1]: 100%
Post-emergence action at 1.25 g/ha against AMARE in % [2]: 100%
Post-emergence action at 5 g/ha against AMARE in % [2]: 100%
Post-emergence action at 20 g/ha against AMARE in % [2]: 100%
Post-emergence action against PHBPU in % ([3]; dosage 1.25 g/ha): 80%
Post-emergence action against PHBPU in % ([3]; dosage 5 g/ha): 100%
Post-emergence action against PHBPU in % ([3]; dosage 20 g/ha): 100%
Post-emergence action against POLCO in % ([4]; dosage 5 g/ha): 100%
Post-emergence action against POLCO in % ([4]; dosage 20 g/ha): 100%
Post-emergence action against STEME (Stellaria media (STEME); 5 g/ha): 100%
Post-emergence action against STEME (Stellaria media (STEME); 20 g/ha): 100%
Post-emergence action against VERPE (Veronica persica (VERPE); 1.25 g/ha): 100%
Post-emergence action against VERPE (Veronica persica (VERPE); 5 g/ha): 100%
Post-emergence action against VERPE (Veronica persica (VERPE); 20 g/ha): 100%
Post-emergence action against VIOTR (Viola tricolor (VIOTR); 1.25 g/ha): 100%
Post-emergence action against VIOTR (Viola tricolor (VIOTR); 5 g/ha): 100%
Post-emergence action against VIOTR (Viola tricolor (VIOTR); 20 g/ha): 100%
Post-emergence action at 20 g/ha against ALOMY in % [5]: 80%
Post-emergence action against ECHCG in % ([6]; dosage 20 g/ha): 80%
Post-emergence action against MATIN in % ([7]; dosage 5 g/ha): 80%
Post-emergence action against MATIN in % ([7]; dosage 20 g/ha): 90%
Post-emergence action against SETVI (Setaria viridis (SETVI)): 100%
Post-emergence action against SETVI in % (Setaria viridis (SETVI); dosage 1.25 g/ha): 90%
Post-emergence action against SETVI in % (Setaria viridis (SETVI); dosage 5 g/ha): 100%
Post-emergence action against BRSNW (crop plant compatibility) (Brassica napus (BRSNW)): 10%
Post-emergence action against GLXMA in % (Glycine max (GLXMA); 1.25 g/ha): 10%
Post-emergence action against TRZAS (crop plant compatibility) ([8]; 1.25 g/ha): 20%
Post-emergence action against TRZAS (crop plant compatibility) ([8]; 5 g/ha): 20%
Post-emergence action against ORYSA (crop plant compatibility) (Oryza sativa (ORYSA); 1.25 g/ha): 20%
Post-emergence action against ORYSA (crop plant compatibility) (Oryza sativa (ORYSA); 5 g/ha): 20%
